Test results: US6831039B1, “3-(heterocyclyl)-substituted benzolpyrazols” (BASF Aktiengesellschaft, priority 1998, dated 2004)

Columns and labels:
Test in all cases: Greenhouse post-emergence herbicidal test
[1] = system: lady's-thumb; assay type: in vivo, Polygonum persicaria; conditions: 0.25 or 0.125 kg/ha
Excerpt: (§1) The seeds of the test plants were sown separately for each species. For the post-emergence treatment, the test plants were first grown to a height of 3 to 15 cm, depending on the plant habit, and only then treated with the active compounds which had been suspended or emulsified in water. The test plants were, for this purpose, either sown directly and grown in the same containers, or they were first grown separately as seedlings and transplanted into the test containers a few days prior to treatment. The application rate for the post-emergence treatment was 0.5, 0.25, 0.125 or 0.0625 kg of a.s. (active substance)/ha. Depending on the species, the plants were kept at 10-25° C. or 20-35° C. The test period extended over 2 to 4 weeks. During this time, the plants were tended, and their response to the individual treatments was evaluated. The evaluation was carried out using a scale from 0 to 100. 100 means no emergence of the plants, or complete destruction of at least the aerial parts and 0 means no damage, or normal course of growth. The plants used in the greenhouse experiments were of the following species: [table]

[2] = system: green foxtail; assay type: in vivo, Setaria viridis
Excerpt: as §1

[3] = system: white mustard; assay type: in vivo, Sinapis alba; conditions: 0.25 or 0.125 kg/ha
Excerpt: as §1

[4] = system: wild oat; assay type: in vivo, Avena fatua; conditions: 0.25 or 0.125 kg/ha
Excerpt: as §1

[5] = system: pigweed; assay type: in vivo, Amaranthus retroflexus; conditions: 0.25 or 0.125 kg/ha
Excerpt: as §1

[6] = system: barnyard grass; assay type: in vivo, Echinochloa crus galli; conditions: 0.5 or 0.25 kg/ha
Excerpt: as §1

[7] = system: black nightshade; assay type: in vivo, Solanum nigrum; conditions: 0.5 or 0.25 kg/ha
Excerpt: as §1

[8] = system: lamb's-quarters; assay type: in vivo, Chenopodium album; conditions: 0.5 or 0.25 kg/ha
Excerpt: as §1

Cc1c(C(=O)c2cnn(C(C)C)c2O)ccc(S(C)(=O)=O)c1C1=NOCC1 [Compound 2.9]
very good: post-emergence action on grasses and weeds [1] | post-emergence action on grasses and weeds ([2]; 0.25 or 0.125 kg/ha) | post-emergence action on grasses and weeds [3] | post-emergence action on grasses and weeds [4] | post-emergence action on grasses and weeds [5]

Cc1nn(C(C)(C)C)c(O)c1C(=O)c1ccc(S(C)(=O)=O)c(C2=NOCC2)c1C [Compound 2.8]
very good: post-emergence control of harmful plants ([2]; 0.5 or 0.25 kg/ha) | post-emergence control of harmful plants [6] | post-emergence control of harmful plants [7] | post-emergence control of harmful plants [8]
